Test results published in patent publication US20230151003A1, “COMPOUNDS AND METHODS OF USE” (Exelixis, Inc., priority 2020, published 2023).
pIC50: −log10 of the molar value.

What was measured:
Type in all cases: biochemical
Human MER = target: T1, Human MER (Homo sapiens, UniProt Q12866); experiment: Human MER kinase assay (HTRF KinEase); conditions: Table 2 Biological Activities, ATP at Km (40 μM)
T1 construct: Human MER (residues 528-999; CarnaBio, 1 ng/ well); purchased CarnaBio
T1 sequence (Q12866 528-999): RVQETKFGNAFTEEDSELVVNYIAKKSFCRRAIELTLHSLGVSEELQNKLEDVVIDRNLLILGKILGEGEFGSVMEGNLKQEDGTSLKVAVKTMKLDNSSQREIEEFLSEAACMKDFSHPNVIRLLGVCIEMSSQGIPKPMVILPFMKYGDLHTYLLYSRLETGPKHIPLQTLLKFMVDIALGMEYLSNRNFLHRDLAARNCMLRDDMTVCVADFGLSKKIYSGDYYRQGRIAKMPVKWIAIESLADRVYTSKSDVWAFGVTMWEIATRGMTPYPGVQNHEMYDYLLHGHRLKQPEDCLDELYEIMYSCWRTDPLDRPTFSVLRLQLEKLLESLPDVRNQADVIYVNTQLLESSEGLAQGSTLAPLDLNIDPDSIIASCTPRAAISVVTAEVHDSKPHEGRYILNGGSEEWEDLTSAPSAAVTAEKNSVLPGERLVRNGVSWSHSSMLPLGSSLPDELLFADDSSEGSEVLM
Method: (§1) Kinase activity and compound inhibition were investigated using the HTRF® KinEase assay (Cisbio Cat #62TKOPEB) per manufacturer's instructions. In short, compounds were delivered in 300 nL volumes at 10 different concentrations in DMSO (3% final) to empty 384-well assay plates (Corning cat #3824). A mixture of enzyme, 1 μM biotynlated peptide substrate, and buffer in 10 μL volume was added. The assay was started upon the addition of ATP (at Km). The 10 μL reaction was incubated at room temperature. The reaction was stopped upon the addition of detection buffer containing streptavidin-XL665 (5 μL) and TK antibody-Eu3+ (5 μL). After a 60 min incubation at room temperature, the fluorescence at 665 nm and 620 nm was read on an Envision microplate reader (Perkin Elmer). Kinase activity normalized to DMSO (100% activity) and reference compound at 1 μM and (0% activity) was calculated using the fluorescence ratio […]. IC50 values were calculated by nonlinear regression analysis using a 4-parameter logistic curve fit in ActivityBase XE (IDBS).
(§2) Human MER (residues 528-999; CarnaBio, 1 ng/ well) was incubated with enzymatic buffer (Cisbio) supplemented with 5 mM MgCl2 and 1 mM DTT. The mixture was added to the pre-plated compounds. The reaction was initiated upon addition of ATP at Km (40 μM). The reaction was incubated at room temperature for 60 min and stopped upon the addition of SA-XL665 and TK-antibody both diluted in EDTA-containing kinase detection buffer (Cisbio). The kinase activity was calculated as stated above and the IC50 values were reported.

Human AXL = target: T2, Human AXL (Homo sapiens, UniProt P30530); experiment: Human AXL kinase assay (HTRF KinEase); conditions: Table 2 Biological Activities, ATP at Km (1.0 μM)
T2 construct: Human AXL (residues 464-885; CarnaBio, 1 ng/ well); purchased CarnaBio
T2 sequence (P30530 464-885 isoform P30530-2): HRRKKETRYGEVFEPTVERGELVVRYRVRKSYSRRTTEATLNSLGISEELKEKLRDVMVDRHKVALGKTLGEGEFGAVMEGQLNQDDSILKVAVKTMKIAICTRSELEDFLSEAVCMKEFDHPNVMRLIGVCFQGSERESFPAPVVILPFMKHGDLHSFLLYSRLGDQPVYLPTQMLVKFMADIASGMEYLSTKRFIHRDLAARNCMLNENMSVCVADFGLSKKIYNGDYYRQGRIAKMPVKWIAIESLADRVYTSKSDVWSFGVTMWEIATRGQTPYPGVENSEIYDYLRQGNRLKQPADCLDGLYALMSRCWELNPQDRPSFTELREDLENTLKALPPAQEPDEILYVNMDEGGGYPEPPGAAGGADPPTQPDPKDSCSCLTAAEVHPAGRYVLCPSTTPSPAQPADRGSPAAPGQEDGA
Method: as §1
as §2, with “AXL” for “MER”, “464-885;” for “528-999;”, “MgCl2,” for “MgCl2 and”, “DTT, and Supplemental Enzymatic Buffer (SEB; Cisbio).” for “DTT.”, “(1.0” for “(40”, “50” for “60”

KDR = KDR (Homo sapiens, UniProt P35968); experiment: Human KDR kinase assay (HTRF KinEase); parameters: Human KDR (residues 790-1356; CarnaBio, 0.1 ng/ well); purchased CarnaBio; conditions: Table 2 Biological Activities, ATP at Km (4.0 μM)
Method: as §1
as §2, with “Human KDR” for “Human MER”, “(residues 790-1356;” for “(residues 528-999;”, “CarnaBio, 0.1” for “CarnaBio, 1”, “mM MgCl2, 1 mM MnCl2,” for “mM MgCl2”, “Km (4.0” for “Km (40”, “for 40” for “for 60”

Met = Met (Homo sapiens, UniProt P08581); experiment: Human MET kinase assay (HTRF KinEase); parameters: Human MET (residues 956-1390; CarnaBio, 0.1 ng/ well); purchased CarnaBio; conditions: Table 2 Biological Activities, ATP at Km (3.0 μM), read-out: c-Met IC50
Method: as §1
Human MET (residues 956-1390; CarnaBio, 0.1 ng/ well) was incubated with enzymatic buffer (Cisbio) supplemented with 5 mM MgCl2, 1 mM DTT and 1 mM MnCl2. The mixture was added to the pre-plated compounds. The reaction was initiated upon addition of ATP at Km (3.0 μM). The reaction was incubated at room temperature for 40 min and stopped upon the addition of SA-XL665 and TK-antibody both diluted in EDTA-containing kinase detection buffer (Cisbio). The kinase activity was calculated as stated above and the IC50 values were reported.

Met, sequence (P08581 956-1390): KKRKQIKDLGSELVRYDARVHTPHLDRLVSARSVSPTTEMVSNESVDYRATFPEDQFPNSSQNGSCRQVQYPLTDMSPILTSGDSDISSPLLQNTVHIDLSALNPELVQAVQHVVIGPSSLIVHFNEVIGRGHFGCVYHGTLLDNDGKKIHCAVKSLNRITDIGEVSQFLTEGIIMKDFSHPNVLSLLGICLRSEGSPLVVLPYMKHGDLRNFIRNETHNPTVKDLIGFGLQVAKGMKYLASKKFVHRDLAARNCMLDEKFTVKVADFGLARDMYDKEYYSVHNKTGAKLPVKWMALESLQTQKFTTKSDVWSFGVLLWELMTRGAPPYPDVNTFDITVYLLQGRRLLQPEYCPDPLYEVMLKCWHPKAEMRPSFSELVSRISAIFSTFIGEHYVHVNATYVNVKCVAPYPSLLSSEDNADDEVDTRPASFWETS
KDR, sequence (P35968 790-1356): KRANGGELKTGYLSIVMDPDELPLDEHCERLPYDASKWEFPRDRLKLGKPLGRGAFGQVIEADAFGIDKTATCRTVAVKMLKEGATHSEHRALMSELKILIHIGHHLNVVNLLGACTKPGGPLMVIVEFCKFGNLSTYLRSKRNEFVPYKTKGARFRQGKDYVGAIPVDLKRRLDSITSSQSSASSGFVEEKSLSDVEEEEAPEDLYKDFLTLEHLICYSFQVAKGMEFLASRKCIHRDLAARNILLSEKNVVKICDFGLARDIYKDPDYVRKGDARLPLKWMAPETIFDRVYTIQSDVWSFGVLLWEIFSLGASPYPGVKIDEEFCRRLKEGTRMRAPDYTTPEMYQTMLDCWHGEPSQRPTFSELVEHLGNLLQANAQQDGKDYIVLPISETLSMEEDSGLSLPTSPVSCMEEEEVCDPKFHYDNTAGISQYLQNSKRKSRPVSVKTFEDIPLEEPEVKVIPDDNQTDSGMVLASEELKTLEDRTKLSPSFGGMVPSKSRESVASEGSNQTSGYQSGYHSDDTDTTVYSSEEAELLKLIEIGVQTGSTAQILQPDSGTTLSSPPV

Row | Compound | pIC50 (Human MER) | pIC50 (Human AXL) | pIC50 (KDR) | pIC50 (Met)
1 | COc1cc2nccc(Oc3ccc(NC(=O)c4cnc(C)c(-c5ccc(F)cn5)c4O)cc3F)c2nc1OC [Compound 85, N-[4-[(6,7-Dimethoxy-1,5-naphthyridin-4-yl)oxy]-3-fluorophenyl]-5-(5-fluoropyridin-2-yl)-4-hydroxy-6-methylpyridine-3-carboxamide] | ≥ 7.00 | ≥ 7.00 | ≥ 7.00 | ≥ 7.00
2 | COc1cnc2c(Oc3ccc(NC(=O)c4c(C)ncc(-c5ccccn5)c4O)cc3F)ccnc2c1 [Compound 70, N-[3-Fluoro-4-[(7-methoxy-1,5-naphthyridin-4-yl)oxy]phenyl]-4-hydroxy-2-methyl-5-pyridin-2-ylpyridine-3-carboxamide] | ≥ 7.00 | ≥ 7.00 | ≥ 7.00 | ≥ 7.00
3 | COc1cc2nccc(Oc3ccc(NC(=O)c4ccc(C)n(-c5ccc(F)cn5)c4=O)cc3)c2nc1OC [Compound 44, N-[4-[(6,7-Dimethoxy-1,5-naphthyridin-4-yl)oxy]phenyl]-1-(5-fluoropyridin-2-yl)-6-methyl-2-oxopyridine-3-carboxamide] | ≥ 7.00 | ≥ 7.00 | ≥ 7.00 | ≥ 7.00
4 | COc1ccc2nccc(Oc3ccc(NC(=O)c4ccc(C)n(-c5ncc(F)cc5C)c4=O)cc3F)c2n1 [Compound 53, N-[3-Fluoro-4-[(6-methoxy-1,5-naphthyridin-4-yl)oxy]phenyl]-1-(5-fluoro-3-methylpyridin-2-yl)-6-methyl-2-oxopyridine-3-carboxamide] | ≥ 7.00 | ≥ 7.00 | 6.00 to 6.52 | ≥ 7.00
5 | COc1cc2nccc(Oc3ccc(NC(=O)c4cccn(-c5ccc(F)cn5)c4=O)cc3F)c2nc1OC [Compound 42, N-[4-[(6,7-Dimethoxy-1,5-naphthyridin-4-yl)oxy]-3-fluorophenyl]-1-(5-fluoropyridin-2-yl)-2-oxopyridine-3-carboxamide] | ≥ 7.00 | ≥ 7.00 | ≥ 7.00 | ≥ 7.00
6 | COc1cc2nccc(Oc3ccc(NC(=O)c4c(C)ncc(-c5ccc(F)cn5)c4O)cc3F)c2nc1OC [Compound 68, N-[4-[(6,7-Dimethoxy-1,5-naphthyridin-4-yl)oxy]-3-fluorophenyl]-5-(5-fluoropyridin-2-yl)-4-hydroxy-2-methylpyridine-3-carboxamide] | ≥ 7.00 | ≥ 7.00 | ≥ 7.00 | ≥ 7.00
7 | COc1cc2nccc(Oc3ccc(NC(=O)c4cc(C(C)=O)c(C)n(-c5ccc(F)cn5)c4=O)cc3F)c2nc1OC [Compound 59, 5-Acetyl-N-[4-[(6,7-dimethoxy-1,5-naphthyridin-4-yl)oxy]-3-fluorophenyl]-1-(5-fluoropyridin-2-yl)-6-methyl-2-oxopyridine-3-carboxamide] | ≥ 7.00 | ≥ 7.00 | 6.00 to 6.52 | ≥ 7.00
8 | COc1cc2nccc(Oc3ccc(NC(=O)c4c(C)ccn(-c5ccc(F)cn5)c4=O)cc3F)c2nc1OC [Compound 41, N-[4-[(6,7-Dimethoxy-1,5-naphthyridin-4-yl)oxy]-3-fluorophenyl]-1-(5-fluoropyridin-2-yl)-4-methyl-2-oxopyridine-3-carboxamide] | ≥ 7.00 | ≥ 7.00 | ≥ 7.00 | ≥ 7.00
9 | COc1cc2nccc(Oc3ccc(NC(=O)c4cn(C)c(C)c(-c5ccc(F)cn5)c4=O)cc3)c2nc1OC [Compound 86, N-[4-[(6,7-Dimethoxy-1,5-naphthyridin-4-yl)oxy]phenyl]-5-(5-fluoropyridin-2-yl)-1,6-dimethyl-4-oxopyridine-3-carboxamide] | ≥ 7.00 | ≥ 7.00 | 6.00 to 6.52 | ≥ 7.00

Other lines, results leading:

Row | pIC50 (Human MER) | pIC50 (Human AXL) | pIC50 (KDR) | pIC50 (Met) | Compound
10 | ≥ 7.00 | ≥ 7.00 | 6.00 to 6.52 | ≥ 7.00 | COc1cnc2c(Oc3ccc(NC(=O)c4ccc(C)n(-c5ncc(F)cc5C)c4=O)cc3F)ccnc2c1 [Compound 52, N-[3-Fluoro-4-[(7-methoxy-1,5-naphthyridin-4-yl)oxy]phenyl]-1-(5-fluoro-3-methylpyridin-2-yl)-6-methyl-2-oxopyridine-3-carboxamide]
11 | ≥ 7.00 | ≥ 7.00 | 6.52 to 7.00 | ≥ 7.00 | COc1cnc2c(Oc3ccc(NC(=O)c4ccc(C)n(-c5ccc(F)cn5)c4=O)cc3F)ccnc2c1 [Compound 45, N-[3-Fluoro-4-[(7-methoxy-1,5-naphthyridin-4-yl)oxy]phenyl]-1-(5-fluoropyridin-2-yl)-6-methyl-2-oxopyridine-3-carboxamide]
12 | ≥ 7.00 | ≥ 7.00 | ≥ 7.00 | ≥ 7.00 | COc1cc2nccc(Oc3ccc(NC(=O)c4ccc(C)n(-c5ccc(F)cn5)c4=O)cc3F)c2nc1OC [Compound 43, N-[4-[(6,7-Dimethoxy-1,5-naphthyridin-4-yl)oxy]-3-fluorophenyl]-1-(5-fluoropyridin-2-yl)-6-methyl-2-oxopyridine-3-carboxamide]
13 | ≥ 7.00 | ≥ 7.00 | ≥ 7.00 | ≥ 7.00 | COCCOc1cc2nccc(Oc3ccc(NC(=O)c4ccc(C)n(-c5ccc(F)cn5)c4=O)cc3F)c2nc1OC [Compound 50, N-[3-Fluoro-4-[[6-methoxy-7-(2-methoxyethoxy)-1,5-naphthyridin-4-yl]oxy]phenyl]-1-(5-fluoropyridin-2-yl)-6-methyl-2-oxopyridine-3-carboxamide]
14 | ≥ 7.00 | ≥ 7.00 | ≥ 7.00 | ≥ 7.00 | COc1cc2nccc(Oc3ccc(NC(=O)c4c(C)ncc(-c5ccccn5)c4O)cc3F)c2nc1OC [Compound 69, N-[4-[(6,7-Dimethoxy-1,5-naphthyridin-4-yl)oxy]-3-fluorophenyl]-4-hydroxy-2-methyl-5-pyridin-2-ylpyridine-3-carboxamide]
